Measured values taken from PMC8490515, “Neuromedin B receptor stimulation of Cav3.2 T-type Ca^2+ channels in primary sensory neurons mediates peripheral pain hypersensitivity” (Theranostics, 2021).

What was measured:
[1] = test system: T-type channels in small TG neurons; assay: Whole-cell patch clamp of T-type channel currents (IT) in small TG neurons; assay type: cell-based, mouse
small TG neurons = assay: TG neuronal excitability (action potential firing, rheobase, threshold); assay type: cell-based, mouse
Protocol: (§1) All the procedures performed in this study were carried out in accordance with NIH guidelines and were approved by the Institutional Animal Care and Use Committee of Soochow University. TG neurons were dissociated as previously described, [23]. Briefly, TGs were harvested from 8- to 10-week-old ICR mice of either sex, cut into small pieces and treated with 2 mg/mL collagenase D (Roche) for 20 min followed by 1.5 mg/mL trypsin (Sigma) at 37 °C for 15 min. Cells were dissociated via gentle trituration with fire-polished sterilized Pasteur pipettes and centrifuged through a 15% BSA gradient to remove debris and nonneuronal cells. TG neurons were resuspended in neurobasal A (Thermo Fisher) supplemented with B27 (Thermo Fisher) and transferred onto Matrigel-coated coverslips. Patch clamp recordings were conducted 2 to 6 h after plating. In shRNA-treated knockdown experiments, TG cells were replated onto coverslips 48 h after infection.
(§2) Standard whole-cell recordings were made at room temperature (22-23 °C) as described previously, [25]. Recording electrodes were pulled from borosilicate glass microcapillary tubes (Sutter Instruments) and had resistances from 3 to 5 MΩ when filled with internal solution. Recordings were obtained using a MultiClamp 700B amplifier (Axon Instruments). Data were digitized on a personal computer using a Digidata 1440 interface under the control of the pClamp10.2 acquisition package (Molecular Devices). Data were acquired at 20 kHz with a low-pass Bessel filter at 2-5 kHz. Series resistance was compensated to 80%. The internal solution used for T-type channel current recordings contained 110 mM CsCl, 4 mM Mg-ATP, 0.3 mM Na2-GTP, 25 mM HEPES, and 10 mM EGTA, adjusted to pH 7.4 with CsOH; 295 mOsm. The external solution used for T-type channel current recordings contained 5 mM BaCl2, 140 mM TEA-Cl, 10 mM HEPES, 0.5 mM MgCl2, 5 mM CsCl, and 5.5 mM glucose, adjusted to pH 7.35 with TEA-OH; 305 mOsm. In experiments for Kv current recordings, the extracellular solution contained 140 mM choline-Cl, 1 mM MgCl2, 0.03 mM CaCl2, 5 mM KCl, 10 mM HEPES, and 10 mM glucose, adjusted to pH 7.4 with KOH; 310 mOsm. The intracellular pipette solution contained 140 mM KCl, 1 mM MgCl2, 0.5 mM CaCl2, 3 mM Mg-ATP, 0.3 mM Na2-GTP, 10 mM HEPES, and 5 mM EGTA, adjusted to pH 7.4 with KOH; 295 mOsm. The two kinetically distinct Kv currents in small TG neurons were separated by the two-step voltage protocol as previously described, [26]. The external solution for Nav current clamp recordings contained 2 mM KCl, 2 mM MgCl2, 25 mM HEPES, 2 mM CaCl2, 128 mM NaCl, and 30 mM glucose, adjusted to pH 7.4 with NaOH; 305 mOsm. The internal solution contained 10 mM NaCl, 110 mM KCl, 4 mM Mg-ATP, 0.3 mM Na2-GTP, 25 mM HEPES, and 2 mM EGTA, adjusted to pH 7.3 with KOH; 295 mOsm. Nmb was applied to a patched cell by an air-pressure microinjector (Pneumatic PicoPump, model PV830, WPI).
We next determined the role of the Nmb-induced T-type channel response in regulating TG neuronal excitability. […] Furthermore, application of Nmb (100 nM) to TG neurons decreased the peak amplitude of the transient outward K^+ channel currents (A-type currents or IA) (decrease of 22.3 ± 3.9%; Figure 6C), while the sustained delayed rectifier K^+ channel currents (IDR) remained unaffected (decrease of 1.9 ± 1.6%; Figure 6C). […] To further test this hypothesis, a shorter (1 ms) current injection was applied to avoid contaminating the action potential waveform with the stimulus. Neurons were manually hyperpolarized to membrane potentials of -75 mV to maximize the number of T-type channels available for activation. With increasingly stronger current injections (+200 pA), the threshold current necessary to evoke an overshooting AP was determined for each neuron in the presence or absence of Nmb.

Cav3.2 (α1H) = assay: Cav3.2 channel currents in HEK293 cells coexpressing NmbR; assay type: cell-based, human
Protocol: as §2, with “mOsm.” for “mOsm. The two kinetically distinct Kv currents in small TG neurons were separated by the two-step voltage protocol as previously described, [26]. The external solution for Nav current clamp recordings contained 2 mM KCl, 2 mM MgCl2, 25 mM HEPES, 2 mM CaCl2, 128 mM NaCl, and 30 mM glucose, adjusted to pH 7.4 with NaOH; 305 mOsm. The internal solution contained 10 mM NaCl, 110 mM KCl, 4 mM Mg-ATP, 0.3 mM Na2-GTP, 25 mM HEPES, and 2 mM EGTA, adjusted to pH 7.3 with KOH; 295 mOsm. Nmb was applied to a patched cell by an air-pressure microinjector (Pneumatic PicoPump, model PV830, WPI).”

[2] = test system: sustained delayed rectifier K^+ channel (IDR); assay: Sustained delayed rectifier K+ currents (IDR) in TG neurons; assay type: cell-based, mouse; settings: 100 nM
Protocol: as §1
Standard whole-cell recordings were made at room temperature (22-23 °C) as described previously, [25]. Recording electrodes were pulled from borosilicate glass microcapillary tubes (Sutter Instruments) and had resistances from 3 to 5 MΩ when filled with internal solution. Recordings were obtained using a MultiClamp 700B amplifier (Axon Instruments). […]

nociceptive reflex = settings: intrathecal injection; ref [4], [5]; cited from earlier work
From the text: Neuromedin B (Nmb) is a highly conserved and non-glycosylated polypeptide in mammals initially purified from porcine spinal cord that serves as a neuromodulator by paracrine or autocrine mechanisms. Nmb receptor (NmbR), which is located predominantly (but not exclusively) in peripheral tissues and organs and the central nervous system in mammals, has been identified as an endogenous receptor for Nmb. Acting through this receptor, Nmb mediates several behavioural effects and performs various biological functions, including regulating food intake, smooth muscle contraction, body temperat ...

CCCCCCOC(=O)[C@]1(O)C[C@@H]2O[C@@]1(C)n1c3ccccc3c3c4c(c5c6ccccc6n2c5c31)C(=O)NC4 [KT-5720]
effect on forskolin-induced IT increase ([1]; 1 µM KT-5720 pretreatment, 10 μM forskolin, n = 6): abrogated | Nmb-induced increase in IT after KT-5720 ([1]; pretreatment 1 µM KT-5720, 100 nM Nmb, n = 7): 2.8 ± 2.9% | effect on Nmb-mediated increase in AP firing rate / hyperexcitability (small TG neurons; pretreatment KT-5720 1 µM (n = 12) or NiCl2 50 μM (n = 11), 100 nM Nmb): blocked | Nmb-induced increase of Cav3.2 currents after KT-5720 (Cav3.2 (α1H); pretreatment 1 µM KT-5720, 100 nM Nmb, n = 9): 1.9 ± 4.2%

Neuromedin B [Nmb]
reversal of IT increase when Nmb removed by washing ([1]; 100 nM, washout): partially reversed | increase of peak amplitude of IT by Nmb ([1]; 100 nM, mean ± SEM, n = 9): 34.2 ± 1.9% | current-voltage relationship curve of IT ([1]; 100 nM, n = 8): downward shifted the current-voltage relationship curve | depolarizing shift in steady-state inactivation ([1]; 100 nM, n = 9): ~ 7.3 mV | shift in activation properties ([1]; 100 nM, n = 9): no significant shifts in activation properties | EC50 ([1]; sigmoidal Hill equation fit, small TG neurons, read-out: EC50 for IT increase): 45.3 nM | Vhalf of activation ([1]; with 100 nM Nmb (control -47.1 ± 1.9 mV), n = 9): -46.3 ± 2.2 mV | Vhalf of steady-state inactivation ([1]; with 100 nM Nmb (control -80.1 ± 2.5 mV), n = 9): -72.8 ± 1.3 mV | threshold current with Nmb (small TG neurons; 100 nM (control +0.98 nA)): +0.79 nA | increase of action potential firing rate (small TG neurons; 100 nM, 5 mM 4-AP and 5 μM nifedipine, 1-s current injection, n = 17): 43.7 ± 3.7% | cells in which the threshold was significantly lowered (small TG neurons; 100 nM, 1 ms current injection, -75 mV): 15 of 19 | resting membrane potential (small TG neurons; 100 nM, n = 17): not significantly changed | rheobase (vs nontreated) (small TG neurons; 100 nM, n = 17): significantly lower | decrease of IDR [2]: 1.9 ± 1.6% | increase of Cav3.2 channel currents (Cav3.2 (α1H); 100 nM Nmb, -110 mV to -30 mV, n = 9): 36.2 ± 3.1% | EC50 (Cav3.2 (α1H); sigmoidal dose-response fit, read-out: EC50 for increase of Cav3.2 channel currents): 47.6 nM | nociceptive reflex responses (nociceptive reflex): elicits nociceptive reflex responses
